Experimental data published in patent US20240208992A1, “MACROCYCLES AS CFTR MODULATORS” (Idorsia Pharmaceuticals Ltd, priority 2021, published 2024).

Molecular target: human F508del-CFTR (Homo sapiens, UniProt P13569, DEL508-508)
Test: F508del-CFTR cell surface expression (corrector activity), DiscoveRx ß-galactosidase complementation chemiluminescence assay in recombinant U2OS cell line;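 also: U2OS cells co-expressing ProLink-tagged F508del-CFTR and a membrane-anchored enzyme acceptor, where more surface CFTR restores β-galactosidase activity measured by chemiluminescence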
Settings: for EC50: EC50, F508del-CFTR cell surface expression, U2OS cells, 16h compound incubation, geomean values; for Emax: U2OS, in relation to Emax of corrector lumacaftor (=100%), arithmetic mean values

Chain of human F508del-CFTR (P13569 with tags, fused parts or gaps DEL508-508): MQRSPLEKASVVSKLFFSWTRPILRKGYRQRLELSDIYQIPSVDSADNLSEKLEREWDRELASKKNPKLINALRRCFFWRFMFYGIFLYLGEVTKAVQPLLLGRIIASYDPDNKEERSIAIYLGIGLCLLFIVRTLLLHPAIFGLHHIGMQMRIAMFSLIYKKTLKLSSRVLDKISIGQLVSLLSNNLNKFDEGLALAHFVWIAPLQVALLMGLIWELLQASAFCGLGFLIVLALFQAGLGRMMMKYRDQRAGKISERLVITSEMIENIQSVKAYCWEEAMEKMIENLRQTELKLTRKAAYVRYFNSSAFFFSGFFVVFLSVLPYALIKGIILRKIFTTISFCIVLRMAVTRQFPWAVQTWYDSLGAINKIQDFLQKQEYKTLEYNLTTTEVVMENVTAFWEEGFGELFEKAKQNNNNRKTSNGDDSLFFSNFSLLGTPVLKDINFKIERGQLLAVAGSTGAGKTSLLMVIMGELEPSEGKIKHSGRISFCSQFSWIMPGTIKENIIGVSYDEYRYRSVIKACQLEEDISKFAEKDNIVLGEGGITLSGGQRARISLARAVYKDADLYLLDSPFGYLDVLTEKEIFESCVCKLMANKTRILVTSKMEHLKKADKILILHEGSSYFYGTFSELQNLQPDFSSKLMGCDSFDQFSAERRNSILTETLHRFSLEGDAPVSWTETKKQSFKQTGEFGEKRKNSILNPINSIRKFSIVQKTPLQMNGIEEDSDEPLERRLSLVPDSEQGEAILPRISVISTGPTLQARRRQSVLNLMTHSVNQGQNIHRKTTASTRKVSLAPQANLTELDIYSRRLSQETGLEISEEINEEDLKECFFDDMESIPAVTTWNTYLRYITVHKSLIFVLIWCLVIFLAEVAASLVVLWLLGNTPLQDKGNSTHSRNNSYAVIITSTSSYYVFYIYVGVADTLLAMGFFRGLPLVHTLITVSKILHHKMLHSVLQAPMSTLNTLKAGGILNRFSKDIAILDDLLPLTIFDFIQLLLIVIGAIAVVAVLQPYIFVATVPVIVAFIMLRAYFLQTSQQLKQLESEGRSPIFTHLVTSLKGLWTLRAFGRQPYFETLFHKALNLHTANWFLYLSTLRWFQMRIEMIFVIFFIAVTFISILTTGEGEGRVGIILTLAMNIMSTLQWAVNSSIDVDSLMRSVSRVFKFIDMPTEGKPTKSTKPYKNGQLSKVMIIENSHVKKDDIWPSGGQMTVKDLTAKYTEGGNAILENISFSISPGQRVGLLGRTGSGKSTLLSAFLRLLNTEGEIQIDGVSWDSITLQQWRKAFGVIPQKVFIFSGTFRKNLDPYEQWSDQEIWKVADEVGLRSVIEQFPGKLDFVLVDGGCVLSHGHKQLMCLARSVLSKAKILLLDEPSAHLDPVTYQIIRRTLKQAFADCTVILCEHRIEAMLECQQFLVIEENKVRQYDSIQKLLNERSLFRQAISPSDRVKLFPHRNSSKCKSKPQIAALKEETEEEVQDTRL

Row | EC50 | Emax | SMILES
1 | 116 nM | 280% | CC(C)C[C@H]1C(=O)N2CCCC[C@@H]2C(=O)N[C@H](Cc2ccccc2)COc2ccc3ncc(F)cc3c2C(=O)N[C@H](C(=O)NCCc2nc(C3CC3)no2)CC(=O)N1C [Example 780, (9S,13S,19aR,22R)-22-benzyl-N-(2-(3-cyclopropyl-1,2,4-oxadiazol-5-yl)ethyl)-5-fluoro-13-isobutyl-12-methyl-7,11,14,20-tetraoxo-7,8,9,10,11,12,13,14,17,18,19,19a,20,21,22,23-hexadecahydro-16H-pyrido[2′,1′:6,7][1]oxa[4,7,10,14]tetraazacycloheptadecino[16,17-f]quinoline-9-carboxamide]
2 | 124 nM | 296% | CC(C)C[C@H]1C(=O)N2CCCC[C@@H]2C(=O)N[C@H](Cc2ccccc2)COc2ccc3ncc(F)cc3c2C(=O)N[C@H](C(=O)NCCc2cc(C3CC3)on2)CC(=O)N1C [Example 781, (9S,13S,19aR,22R)-22-benzyl-N-(2-(5-cyclopropylisoxazol-3-yl)ethyl)-5-fluoro-13-isobutyl-12-methyl-7,11,14,20-tetraoxo-7,8,9,10,11,12,13,14,17,18,19,19a,20,21,22,23-hexadecahydro-16H-pyrido[2′,1′:6,7][1]oxa[4,7,10,14]tetraazacycloheptadecino[16,17-f]quinoline-9-carboxamide]
3 | 889 nM | 410% | COc1cc(CCNC(=O)[C@@H]2CC(=O)N(C)[C@@H](CC(C)C)C(=O)N(C)[C@H](Cc3nc(-c4ccc(F)cn4)no3)C(=O)N[C@H](Cc3ccccc3)COc3ccnc(OC)c3C(=O)N2)on1 [Example 783, (3R,6R,9S,13S)-3-benzyl-6-((3-(5-fluoropyridin-2-yl)-1,2,4-oxadiazol-5-yl)methyl)-9-isobutyl-16-methoxy-N-(2-(3-methoxyisoxazol-5-yl)ethyl)-7,10-dimethyl-5,8,11,15-tetraoxo-2,3,4,5,6,7,8,9,10,11,12,13,14,15-tetradecahydropyrido[3,4-p][1]oxa[4,7,10,14]tetraazacycloheptadecine-13-carboxamide]
4 | 311 nM | 391% | CC[C@@H]1C(=O)N[C@H](Cc2ccccc2)COc2cc(C)nc(OC)c2C(=O)N[C@H](C(=O)NCCc2cc(OC)no2)CC(=O)N(C)[C@@H](CC(C)C)C(=O)N1C [Example 784, (3R,6R,9S,13S)-3-benzyl-6-ethyl-9-isobutyl-16-methoxy-N-(2-(3-methoxyisoxazol-5-yl)ethyl)-7,10,18-trimethyl-5,8,11,15-tetraoxo-2,3,4,5,6,7,8,9,10,11,12,13,14,15-tetradecahydropyrido[3,4-p][1]oxa[4,7,10,14]tetraazacycloheptadecine-13-carboxamide]
5 | 210 nM | 365% | COc1cc(CCNC(=O)[C@@H]2CC(=O)N(C)[C@@H](CC(C)C)C(=O)N(C)[C@H](CC(F)F)C(=O)N[C@H](Cc3ccccc3)COc3cc(C)nc(OC)c3C(=O)N2)on1 [Example 785, (3R,6R,9S,13S)-3-benzyl-6-(2,2-difluoroethyl)-9-isobutyl-16-methoxy-N-(2-(3-methoxyisoxazol-5-yl)ethyl)-7,10,18-trimethyl-5,8,11,15-tetraoxo-2,3,4,5,6,7,8,9,10,11,12,13,14,15-tetradecahydropyrido[3,4-p][1]oxa[4,7,10,14]tetraazacycloheptadecine-13-carboxamide]
6 | 156 nM | 337% | COc1cc(CCNC(=O)[C@@H]2CC(=O)N(C)[C@@H](CC(C)C)C(=O)N(C)[C@H](C)C(=O)N[C@H](Cc3ccccc3)COc3ccc4ncc(F)cc4c3C(=O)N2)on1 [Example 786, (3S,7S,10R,13R)-13-benzyl-20-fluoro-7-isobutyl-N-(2-(3-methoxyisoxazol-5-yl)ethyl)-6,9,10-trimethyl-1,5,8,11-tetraoxo-1,2,3,4,5,6,7,8,9,10,11,12,13,14-tetradecahydro-[1]oxa[4,7,10,14]tetraazacycloheptadecino[16,17-f]quinoline-3-carboxamide]
7 | 190 nM | 323% | CC(C)C[C@H]1C(=O)N(C)[C@H](C)C(=O)N[C@H](Cc2ccccc2)COc2ccc3ncc(F)cc3c2C(=O)N[C@H](C(=O)NCCn2ncc(C3CC3)n2)CC(=O)N1C [Example 787, (3S,7S,10R,13R)-13-benzyl-N-(2-(4-cyclopropyl-2H-1,2,3-triazol-2-yl)ethyl)-20-fluoro-7-isobutyl-6,9,10-trimethyl-1,5,8,11-tetraoxo-1,2,3,4,5,6,7,8,9,10,11,12,13,14-tetradecahydro-[1]oxa[4,7,10,14]tetraazacycloheptadecino[16,17-f]quinoline-3-carboxamide]
8 | 675 nM | 358% | COc1cc(CCNC(=O)[C@@H]2CC(=O)N(C)[C@@H](CC(C)C)C(=O)N(C)[C@H](C)C(=O)N[C@H](Cc3ccccc3)COc3ccc4nccn4c3C(=O)N2)on1 [Example 789, (3S,7S,10R,13R)-13-benzyl-7-isobutyl-N-(2-(3-methoxyisoxazol-5-yl)ethyl)-6,9,10-trimethyl-1,5,8,11-tetraoxo-1,2,3,4,5,6,7,8,9,10,11,12,13,14-tetradecahydroimidazo[1′,2′:1,6]pyrido[2,3-p][1]oxa[4,7,10,14]tetraazacycloheptadecine-3-carboxamide]
9 | 650 nM | 350% | CC(C)C[C@H]1C(=O)N(C)[C@H](C)C(=O)N[C@H](Cc2ccccc2)COc2ccc3nccn3c2C(=O)N[C@H](C(=O)NCCc2cc(C3CC3)no2)CC(=O)N1C [Example 790, (3S,7S,10R,13R)-13-benzyl-N-(2-(3-cyclopropylisoxazol-5-yl)ethyl)-7-isobutyl-6,9,10-trimethyl-1,5,8,11-tetraoxo-1,2,3,4,5,6,7,8,9,10,11,12,13,14-tetradecahydroimidazo[1′,2′:1,6]pyrido[2,3-p][1]oxa[4,7,10,14]tetraazacycloheptadecine-3-carboxamide]

Row | SMILES | EC50 | Emax
10 | COc1cccc2c1C(=O)N[C@H](C(=O)NCCc1noc(C3CC3)n1)CC(=O)N(C)[C@@H](CC(C)C)C(=O)N(C)[C@H](Cc1nc(-c3ccc(F)cn3)no1)C(=O)N[C@H](Cc1ccccc1)CO2 [Example 782, (3R,6R,9S,13S)-3-benzyl-N-(2-(5-cyclopropyl-1,2,4-oxadiazol-3-yl)ethyl)-6-((3-(5-fluoropyridin-2-yl)-1,2,4-oxadiazol-5-yl)methyl)-9-isobutyl-16-methoxy-7,10-dimethyl-5,8,11,15-tetraoxo-2,3,4,5,6,7,8,9,10,11,12,13,14,15-tetradecahydropyrido[3,4-p][1]oxa[4,7,10,14]tetraazacycloheptadecine-13-carboxamide] | 859 nM | 439%
11 | COc1cccc(CCNC(=O)[C@@H]2CC(=O)N(C)[C@@H](CC(C)C)C(=O)N(C)[C@H](C)C(=O)N[C@H](Cc3ccccc3)COc3ccc4nccn4c3C(=O)N2)c1 [Example 788, (3S,7S,10R,13R)-13-benzyl-7-isobutyl-N-(3-methoxyphenethyl)-6,9,10-trimethyl-1,5,8,11-tetraoxo-1,2,3,4,5,6,7,8,9,10,11,12,13,14-tetradecahydroimidazo[1′,2′:1,6]pyrido[2,3-p][1]oxa[4,7,10,14]tetraazacycloheptadecine-3-carboxamide] | 549 nM | 344%
